The record followed here is patent US20130150363A1, “Method of Treating Cancer Using a cMET and AXL Inhibitor and an ErbB Inhibitor” (GlaxoSmithKline, priority 2008, published 2013).

Molecules are shown by their SMILES.

Common to all, as to format: cell-based
Assay [1] has as its system NCI-H2170 lung carcinoma cells. In words: Cell growth inhibition (CellTiter-Glo), NCI-H2170. To be noted: Homo sapiens, NCI-H2170, 72 h, 3 days. The source says: (§1) Esophageal carcinoma cell line OE33 was purchased from ECACC European Collection of Cell Cultures (UK). Breast cancer cell line JIMT-1 and gastric carcinoma cell line MKN-45 were purchased from Deutsche Sammlung von Mikroorganismen and Zellkulturen GmbH (Germany); KPL-4, a human breast cancer cell line was kindly provided by Prof. J Kurebayashi (Kawasaki Medical School, Kurashiki, Japan). […] The LICR-LON-HN5 head and neck carcinoma cell line (HN5) was a gift from the Institute of Cancer Research, Surrey, U.K. HN5C12 was developed by single-cell cloning of HN5 followed by exposure to increasing concentrations of lapatinib. […] Cell growth inhibition was determined via CellTiter-Glo cell viability assays. […] BT474-J4 and HN5C12 were washed with PBS and plated in their culture media without lapatinib. […] ATP levels were determined by adding Cell Titer Glo0 (Promega), incubating for 20 minutes then the luminescent signal was read on the SpectraMax M5 plate with a 0.5 second integration time. Cell growth was calculated relative to vehicle (DMSO) treated control wells. […] y=([…]) where A is the minimum response (ymin), B is the maximum response (ymax), c is the inflection point of the curve (EC50), d is the Hill coefficient, and x is the log10 compound concentration (moles/L). CI values were calculated with the interpolated IC50 values and the mutually non-exclusive equation derived by Chou and […](a)+Db/IC50(b)+(Da×Db)/(IC50(a)×IC50(b)) where IC50(a) is the IC50 of the inhibitor A; IC50(b) is the IC50 for the inhibitor B; […] Excess Over Highest Single Agent (EOHSA) is defined as a statistically significant improvement in the combination compared to the component monotherapies. […] See Borisy et al. (2003) or Hung et al. (1993) for examples and discussion. Analysis was conducted using two-factor analysis of variance with interaction (model terms were dose of drug A, dose of drug B, and interaction between doses of drug A and B), followed by linear contrasts between each combination group and corresponding monotherapies. Analysis was conducted using SAS (version 9, provided by SAS Institute, Cary, N.C.). EOHSA at each dose was calculated as the minimum difference in average % inhibition between the combination and each monotherapy, from the appropriate ANOVA contrast. Since there are many comparisons for the % inhibition endpoint, p-value adjustment for multiple comparisons was performed. Hommel's procedure was implemented in order to improve the power while retaining […] Error Rate (FWE) control by using a sequentially rejective method. The p-values for both synergy and antagonism were calculated using this adjustment.

For assay [2], the system named is ovary_SKOV3 tumor cells. In words: Cell growth inhibition (CellTiter-Glo), SKOV3. To be noted: Homo sapiens, SK-OV-3, 72 h, 3 days. The protocol:
Cell growth inhibition was determined via CellTiter-Glo cell viability assays. […] BT474-J4 and HN5C12 were washed with PBS and plated in their culture media without lapatinib. […] ATP levels were determined by adding Cell Titer Glo0 (Promega), incubating for 20 minutes then the luminescent signal was read on the SpectraMax M5 plate with a 0.5 second integration time. Cell growth was calculated relative to vehicle (DMSO) treated control wells. […] y=([…]) where A is the minimum response (ymin), B is the maximum response (ymax), c is the inflection point of the curve (EC50), d is the Hill coefficient, and x is the log10 compound concentration (moles/L). CI values were calculated with the interpolated IC50 values and the mutually non-exclusive equation derived by Chou and […](a)+Db/IC50(b)+(Da×Db)/(IC50(a)×IC50(b)) where IC50(a) is the IC50 of the inhibitor A; IC50(b) is the IC50 for the inhibitor B; […] Excess Over Highest Single Agent (EOHSA) is defined as a statistically significant improvement in the combination compared to the component monotherapies. […] In statistical terms, the maximum of the p-value's for the two comparisons Aq+Br vs Aq and Aq+Br vs Br should be less than or equal to an appropriate cutoff, p≦0.05. EOHSA is a common approach for evaluating drug combinations, and is an FDA criterion (21 CRF 300.50) for combination drug approval. See Borisy et al. (2003) or Hung et al. (1993) for examples and discussion. Analysis was conducted using two-factor analysis of variance with interaction (model terms were dose of drug A, dose of drug B, and interaction between doses of drug A and B), followed by linear contrasts between each combination group and corresponding monotherapies. Analysis was conducted using SAS (version 9, provided by SAS Institute, Cary, N.C.). EOHSA at each dose was calculated as the minimum difference in average % inhibition between the combination and each monotherapy, from the appropriate ANOVA contrast. Since there are many comparisons for the % inhibition endpoint, p-value adjustment for multiple comparisons was performed. Hommel's procedure was implemented in order to improve the power while retaining […] Error Rate (FWE) control by using a sequentially rejective method. The p-values for both synergy and antagonism were calculated using this adjustment.
Background: In ATP-based viability assays light output follows the ATP content of the culture.

Assay [3] relates to SCC12 head and neck squamous cell carcinoma cells. Kind of assay: Cell growth inhibition (CellTiter-Glo), SCC12. To be noted: Homo sapiens, SCC12, 72 h, 3 days.
Text: as §1

Assay [4] concerns HN5 head and neck carcinoma cells. In words: Cell growth inhibition (CellTiter-Glo), HN5. The following applies: Homo sapiens, 72 h, 3 days.
Text: as §1

The IC50 is the concentration needed to halve the response being measured. Take `C#Cc1cccc(Nc2ncnc3cc(OCCOC)c(OCCOC)cc23)c1` [Erlotinib, N-(3-ethynylphenyl)-6,7-bis{[2-(methyloxy)ethyl]oxy}-4-quinazolinamine]: the half-inhibitory concentration (IC50) was 7.74 µM in assay [1] (lung_H2170, +HGF (2 ng/mL)); 1.28 µM in assay [1] (lung_H2170, −HGF); 5.39 µM in assay [2] (ovary_SKOV3, +HGF (2 ng/mL)); 5.62 µM in assay [2] (ovary_SKOV3, −HGF); greater than 10 µM in assay [3] (hn_SCC12, +HGF (2 ng/mL)); greater than 10 µM in assay [3] (hn_SCC12, −HGF). For the same compound, the half-maximal inhibitory concentration (IC50) in assay [4] (hn_HN5, +HGF (2 ng/mL)) was greater than 10 µM; in assay [4] (hn_HN5, −HGF), 6.72 µM.

Consider `CS(=O)(=O)CCNCc1ccc(-c2ccc3ncnc(Nc4ccc(OCc5cccc(F)c5)c(Cl)c4)c3c2)o1` [Lapatinib, N-(3-chloro-4-{[(3-fluorophenyl)methyl]oxy}phenyl)-6-[5-({[2-(methylsulfonyl)ethyl]amino}methyl)-2-furanyl]-4-quinazolinamine], for which the IC50 in assay [1] (lung_H2170, +HGF (2 ng/mL)) is 4.24 µM; in assay [1] (lung_H2170, −HGF), 0.26 µM; in assay [2] (ovary_SKOV3, +HGF (2 ng/mL)) it was 5.67 µM; in assay [2] (ovary_SKOV3, −HGF), 5.02 µM; in assay [3] (hn_SCC12, +HGF (2 ng/mL)), greater than 10 µM; in assay [3] (hn_SCC12, −HGF) it was greater than 10 µM. The IC50 in assay [4] (hn_HN5, +HGF (2 ng/mL)) was found to be 3.69 µM; in assay [4] (hn_HN5, −HGF) it was 2.37 µM.
